Columns and labels:
Human TLR7/8 = experiment: Human PBMC cell-based assay, TLR7/8 (RNA-Ig), cytokine ELISA; settings: PBMC assay data summary; ligand and analyte not given; read-out: Human PBMCs IC50
Experimental: Human peripheral blood mononuclear cells (PBMC) were isolated from freshly-drawn heparinized (10 USP units/ml, Hospira, Lakeforest, Ill.) healthy donor whole blood by density gradient (Histopaque® 1077, Sigma, Inc., St. Louis, Mo.). Briefly, 25 ml blood was diluted with 15 ml PBS (without Ca^2+, Mg^2+) in a 50 ml conical tube, and 12 ml Histopaque was underlaid using a spinal needle. Tubes were centrifuged for 45 minutes at 1200 rpm (350×g), and PBMC were collected from the buffy coat. Cells were then washed twice in PBS, and red blood cells were lysed by suspension in 5 ml ammonium chloride solution (1× Red Blood Cell Lysis Buffer, eBioscience) for 5 minutes at room temperature. After a final wash in PBS, PBMC were resuspended at a final concentration of 2×10^6/ml in RPMI-1640 media with L-glutamine (Invitrogen) and supplemented with 25 mM HEPES (Mediatech, Inc, Manassas Va.), 10% fetal bovine serum (HyClone, Logan, Utah), and Penicillin-Streptomycin-Glutamine (Mediatech) and plated at 100 ul/well (2×10^5 cells/well) in tissue culture treated 96-well plates (Falcon).
Antagonist compounds solubilized and serial diluted in 100% DMSO were added in triplicate to cells to yield a final concentration of 0.1% DMSO (v/v). Hydroxychloroquine (Acros Organics) solubilized and serial diluted in PBS was added in triplicate to cells. PBMC were incubated with antagonist compounds or HCQ for 30 minutes at 37° C., 5% CO2 before adding various TLR agonist reagents in 100 ul complete media per well as follows (final concentrations indicated): R848 (Resiquimod; GLSynthesis, Worcester, Mass.) at 1 uM for TLR7 and TLR8, Pam3CSK4 (InvivoGen) at 50 ng/ml for TLR1/2, LPS (Sigma) at 10 ng/ml for TLR4, and CpG-2216 (InvivoGen) at 5 ug/ml for TLR9. […] The resulting “RNA-Ig” stimulus was incubated at room temperature for 15-30 minutes before adding to cells. PBMC were incubated with the various TLR agonists for 20 hours at 37° C., 5% CO2. Cell culture supernatants were collected, and levels of various human cytokines were assessed as indicated by standard ELISA procedure according to the manufacturer's recommended protocol (BD Biosciences, Inc., San Diego, Calif.).

human TLR8 = molecular target: T1, human TLR8 (Homo sapiens, UniProt Q9NR97); experiment: HEK-293 assay format, human TLR8 (CL097); format: cell-based; settings: read-out: HEK/hTLR8 IC50
T1 construct: host or cells: HEK-293 stably expressing hTLR8, then transfected with pNiFty2(NF-kappaB)-luciferase
T1 sequence (Q9NR97 27-1041): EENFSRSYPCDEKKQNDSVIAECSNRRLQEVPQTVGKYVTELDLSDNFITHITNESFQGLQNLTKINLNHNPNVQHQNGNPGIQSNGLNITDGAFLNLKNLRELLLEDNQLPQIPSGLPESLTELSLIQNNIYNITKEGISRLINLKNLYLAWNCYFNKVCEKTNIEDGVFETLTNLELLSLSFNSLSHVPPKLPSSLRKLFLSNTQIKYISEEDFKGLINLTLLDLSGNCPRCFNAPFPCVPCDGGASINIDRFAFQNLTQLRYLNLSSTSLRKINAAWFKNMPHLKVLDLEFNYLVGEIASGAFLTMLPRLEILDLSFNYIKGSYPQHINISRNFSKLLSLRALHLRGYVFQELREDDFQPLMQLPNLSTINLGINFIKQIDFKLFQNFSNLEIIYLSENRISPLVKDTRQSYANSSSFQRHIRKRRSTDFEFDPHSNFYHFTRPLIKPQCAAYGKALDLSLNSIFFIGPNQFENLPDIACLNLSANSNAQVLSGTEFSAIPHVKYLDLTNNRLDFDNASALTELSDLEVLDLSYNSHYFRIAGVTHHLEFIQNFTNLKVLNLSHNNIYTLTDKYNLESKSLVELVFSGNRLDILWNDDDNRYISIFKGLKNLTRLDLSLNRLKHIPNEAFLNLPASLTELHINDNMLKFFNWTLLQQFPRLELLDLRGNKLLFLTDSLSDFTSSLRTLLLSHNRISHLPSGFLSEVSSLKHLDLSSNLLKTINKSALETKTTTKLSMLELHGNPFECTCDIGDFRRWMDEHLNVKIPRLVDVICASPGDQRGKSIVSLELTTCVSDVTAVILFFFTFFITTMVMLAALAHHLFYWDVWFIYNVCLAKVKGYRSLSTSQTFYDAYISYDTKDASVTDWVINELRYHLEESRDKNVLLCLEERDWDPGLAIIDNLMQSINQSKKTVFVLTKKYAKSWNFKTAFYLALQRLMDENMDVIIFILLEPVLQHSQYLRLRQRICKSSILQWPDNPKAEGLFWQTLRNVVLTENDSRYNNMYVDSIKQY
From the text: HEK-293 cells (ATCC) were engineered to stably express a NF-kappaB transcription factor inducible E-selectin (ELAM-1) luciferase reporter derived from the plasmid pGL3 (Promega) containing base pairs −2241 bp to −254 bp from the promoter of the human E-selectin gene (Accession No. NM_000450). These cells were then subsequently engineered to stably and individually express human TLR4, TLR7 or TLR9 full-length ORF cDNAs. Human TLR4 cDNA (Accession No. NM_138554) was cloned into pcDNA 3.0 expression vector (Invitrogen). TLR4 transfected cells were also engineered to express human MD-2 co-receptor [MD-2 cDNA (Accession No. NM_015364) was cloned into the pEF-BOS vector] and were supplemented with 10 nM soluble CD14 (R&D Systems) in the media to optimize LPS responsiveness. Human TLR9 cDNA (Accession No. NM_017442) was cloned into the pBluescript II KS vector (Agilent). Human TLR7 cDNA (Accession No. NM_016562) was obtained from OriGene. HEK-293 cells stably expressing human TLR8 (Accession No. NM_138636) or mouse TLR7 (Accession No. NM_133211) were purchased from InvivoGen and were then stably transfected with pNiFty2(NF-kappaB)-luciferase reporter plasmid (InvivoGen). Each cell type was plated in Dulbecco's modified Eagle's medium (DMEM) containing 10% fetal bovine serum (FBS) at a density of 2.22×10^5 cells/ml into a 384-well plate and incubated for 2 days at 37° C., 5% CO2. […]

Human TLR4 = Human TLR4 (Homo sapiens, UniProt O00206); experiment: Human PBMC cell-based assay, LPS stimulation, IL-6; parameters: endogenous in cells; host or cells: primary human PBMC from healthy donors; settings: Hu PBMC; ligand LPS
Sequence of Human TLR4 (O00206 24-839): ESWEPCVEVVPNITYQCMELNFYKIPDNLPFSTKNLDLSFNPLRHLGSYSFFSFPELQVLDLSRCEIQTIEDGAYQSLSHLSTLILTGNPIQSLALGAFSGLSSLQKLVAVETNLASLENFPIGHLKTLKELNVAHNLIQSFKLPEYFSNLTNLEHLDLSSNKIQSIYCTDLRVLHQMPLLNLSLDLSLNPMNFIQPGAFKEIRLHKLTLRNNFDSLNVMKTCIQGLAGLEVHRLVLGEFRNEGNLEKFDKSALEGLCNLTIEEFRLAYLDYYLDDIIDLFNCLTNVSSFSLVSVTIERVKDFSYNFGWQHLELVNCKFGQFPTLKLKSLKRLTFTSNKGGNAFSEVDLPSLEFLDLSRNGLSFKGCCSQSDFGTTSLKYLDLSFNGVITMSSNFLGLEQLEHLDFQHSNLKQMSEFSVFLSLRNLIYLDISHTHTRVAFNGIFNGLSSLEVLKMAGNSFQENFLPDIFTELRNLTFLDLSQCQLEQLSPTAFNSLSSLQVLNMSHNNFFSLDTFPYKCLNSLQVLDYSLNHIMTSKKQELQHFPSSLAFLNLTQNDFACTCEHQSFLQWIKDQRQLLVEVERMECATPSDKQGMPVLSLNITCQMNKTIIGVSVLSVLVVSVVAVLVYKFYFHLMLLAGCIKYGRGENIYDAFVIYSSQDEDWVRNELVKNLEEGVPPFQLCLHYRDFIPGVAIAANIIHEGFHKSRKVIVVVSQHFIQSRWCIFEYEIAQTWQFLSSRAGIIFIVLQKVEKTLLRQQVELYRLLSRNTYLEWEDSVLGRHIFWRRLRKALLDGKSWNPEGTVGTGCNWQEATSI
Sequence of Human TLR4 (Q9Y6Y9 19-160 partner): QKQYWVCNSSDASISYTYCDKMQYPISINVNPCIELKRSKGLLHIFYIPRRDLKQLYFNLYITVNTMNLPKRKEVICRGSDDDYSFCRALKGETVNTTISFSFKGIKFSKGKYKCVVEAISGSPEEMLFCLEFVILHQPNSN
Experimental: (§1) Human peripheral blood mononuclear cells (PBMC) were isolated from freshly-drawn heparinized (10 USP units/ml, Hospira, Lakeforest, Ill.) healthy donor whole blood by density gradient (Histopaque® 1077, Sigma, Inc., St. Louis, Mo.). Briefly, 25 ml blood was diluted with 15 ml PBS (without Ca^2+, Mg^2+) in a 50 ml conical tube, and 12 ml Histopaque was underlaid using a spinal needle. Tubes were centrifuged for 45 minutes at 1200 rpm (350×g), and PBMC were collected from the buffy coat. Cells were then washed twice in PBS, and red blood cells were lysed by suspension in 5 ml ammonium chloride solution (1× Red Blood Cell Lysis Buffer, eBioscience) for 5 minutes at room temperature. […]
(§2) Antagonist compounds solubilized and serial diluted in 100% DMSO were added in triplicate to cells to yield a final concentration of 0.1% DMSO (v/v). […] Cell culture supernatants were collected, and levels of various human cytokines were assessed as indicated by standard ELISA procedure according to the manufacturer's recommended protocol (BD Biosciences, Inc., San Diego, Calif.).

Human TLR9 = molecular target: T2, Human TLR9 (Homo sapiens, UniProt Q9NR96); experiment: Human PBMC cell-based assay, CpG-ODN stimulation, IL-6; parameters: endogenous in cells; host or cells: primary human PBMC from healthy donors; settings: Hu PBMC; ligand CpG-ODN
T2 sequence (Q9NR96 26-1032): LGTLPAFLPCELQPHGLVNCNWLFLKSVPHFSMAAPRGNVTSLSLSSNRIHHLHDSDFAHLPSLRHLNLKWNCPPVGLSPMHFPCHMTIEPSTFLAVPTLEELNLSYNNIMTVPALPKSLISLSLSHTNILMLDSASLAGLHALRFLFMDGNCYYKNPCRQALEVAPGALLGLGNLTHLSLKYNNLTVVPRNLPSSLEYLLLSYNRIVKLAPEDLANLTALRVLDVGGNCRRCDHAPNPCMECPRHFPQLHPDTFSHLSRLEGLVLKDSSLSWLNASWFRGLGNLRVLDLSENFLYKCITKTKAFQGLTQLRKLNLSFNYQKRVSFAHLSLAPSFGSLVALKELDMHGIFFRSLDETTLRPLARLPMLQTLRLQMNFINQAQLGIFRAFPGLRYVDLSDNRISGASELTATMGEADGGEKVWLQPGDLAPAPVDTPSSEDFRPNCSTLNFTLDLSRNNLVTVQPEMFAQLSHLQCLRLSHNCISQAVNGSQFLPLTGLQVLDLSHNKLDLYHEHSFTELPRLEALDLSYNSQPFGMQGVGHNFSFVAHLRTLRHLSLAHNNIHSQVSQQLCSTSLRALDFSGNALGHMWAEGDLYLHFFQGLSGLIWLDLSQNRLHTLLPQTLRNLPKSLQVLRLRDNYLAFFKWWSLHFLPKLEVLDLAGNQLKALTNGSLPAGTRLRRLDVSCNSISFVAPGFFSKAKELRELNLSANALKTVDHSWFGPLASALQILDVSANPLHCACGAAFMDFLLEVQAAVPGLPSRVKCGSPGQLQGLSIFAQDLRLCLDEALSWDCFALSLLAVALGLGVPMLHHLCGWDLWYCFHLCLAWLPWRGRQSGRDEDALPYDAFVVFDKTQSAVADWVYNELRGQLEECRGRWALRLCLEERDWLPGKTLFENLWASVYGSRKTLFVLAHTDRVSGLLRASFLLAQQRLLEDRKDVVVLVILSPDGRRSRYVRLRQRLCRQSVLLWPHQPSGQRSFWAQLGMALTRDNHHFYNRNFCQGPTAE
Experimental: as §1, §2

IC50 (Human TLR4) [nM] | IC50 (Human TLR9) [nM] | SMILES | IC50 (Human TLR7/8) [nM] | IC50 (human TLR8) [nM]
– | – | N#Cc1ccc(N2CCC[C@@H](N)C2)c2cccnc12 [ER-878921] | 90 | 74
> 10000 | 150 to 300 | CCN(CCO)CCCC(C)Nc1ccnc2cc(Cl)ccc12 (stereo not shown) [HCQ, Hydroxychloroquine] | – | –
